Measured values from US12473289B2, “Heterocyclic compounds as delta-5 desaturase inhibitors and methods of use” (Amgen Inc., priority 2019, dated 2025).

target: Delta-5-Desaturase (D5D) (Homo sapiens (Human), UniProt O60427); assay: In vitro measurement of Delta-5-Desaturase inhibitory activity using DGLA-CoA and Arachidonyl-CoA mass spectrometric assays; assay type: biochemical; conditions: membrane preparations of D5D-overexpressing HEK293 6E cells; averaged over at least two independent runs
Sequence (O60427 whole entry, species assumed): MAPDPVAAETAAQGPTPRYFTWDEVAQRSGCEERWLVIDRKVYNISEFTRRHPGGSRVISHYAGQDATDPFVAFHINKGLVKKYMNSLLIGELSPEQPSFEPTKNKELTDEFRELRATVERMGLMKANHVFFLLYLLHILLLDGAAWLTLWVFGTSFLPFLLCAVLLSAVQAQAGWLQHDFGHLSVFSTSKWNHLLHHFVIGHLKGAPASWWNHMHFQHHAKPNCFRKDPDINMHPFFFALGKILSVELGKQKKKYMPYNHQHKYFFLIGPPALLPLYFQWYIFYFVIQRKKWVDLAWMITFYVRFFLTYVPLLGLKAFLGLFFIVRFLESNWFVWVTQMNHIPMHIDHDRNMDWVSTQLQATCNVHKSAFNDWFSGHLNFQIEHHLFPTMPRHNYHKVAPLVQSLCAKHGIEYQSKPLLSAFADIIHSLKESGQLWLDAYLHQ
How it was run: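 DGLA-CoA and arachidonyl-CoA were read by RapidFire SPE triple-quad MS (negative mode, MRM) after a 1 h ambient-temperature reaction quenched with acetonitrile. Enzyme was D5D-overexpressing HEK293 6E membranes at 10 μg/mL final; substrate solution held 0.01 mM DGLA plus NADH, ATP and CoA. Inhibition was referenced to DMSO and no-enzyme wells; 4PL IC50.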

Q: How did the IC50 turn out when `COc1ccn2c(=O)c(-c3ccc(O[C@@H](C)C#N)cc3)c(C(F)(F)F)nc2n1` [Example 8-7, (2S)-2-(4-(8-methoxy-4-oxo-2-(trifluoromethyl)-4H-pyrimido[1,2-a]pyrimidin-3-yl)phenoxy)propanenitrile] was run?
A: 4910 nM

Q: For `COc1ccn2c(=O)c(-c3ccc(OCC(F)(F)F)cc3F)c(C(F)(F)F)nc2n1` [Example 1-53, 3-(2-fluoro-4-(2,2,2-trifluoroethoxy)phenyl)-8-methoxy-2-(trifluoromethyl)-4H-pyrimido[1,2-a]pyrimidin-4-one], which IC50 is on record?
A: 8.5 nM

Q: `CSCOc1ccn2c(=O)c(-c3ccc(OCC(F)(F)F)cc3)c(C(F)(F)F)nc2c1` [Example 17-1, 8-((Methylsulfanyl)methoxy)-3-(4-(2,2,2-trifluoroethoxy)phenyl)-2-(trifluoromethyl)-4H-pyrido[1,2-a]pyrimidin-4-one] was tested. Which IC50 did it give?
A: 317 nM

Q: Which IC50 does the source give for `COc1ccn2c(=O)c(-c3cnn(-c4ccc(C(F)(F)F)cc4)c3)c(C(F)(F)F)nc2c1` [Example 1-71, 8-methoxy-2-(trifluoromethyl)-3-(1-(4-(trifluoromethyl)phenyl)-1H-pyrazol-4-yl)-4H-pyrido[1,2-a]pyrimidin-4-one] here?
A: 4880 nM

Q: With `O=c1c(-c2cnn(CC(F)(F)C(F)(F)F)c2)c(C(F)(F)F)nc2cc(OCF)cnn12` [Example 47, 8-(Fluoromethoxy)-3-[1-(2,2,3,3,3-pentafluoropropyl)-1H-pyrazol-4-yl]-2-(trifluoromethyl)-4H-pyrimido[1,2-b]pyridazin-4-one] as the molecule, how does the IC50 read?
A: 33.5 nM

Q: `COc1ccn2c(=O)c(-c3ncc(CCC(F)(F)F)s3)c(C(F)(F)F)nc2c1` [Example 58, 8-Methoxy-2-(trifluoromethyl)-3-[5-(3,3,3-trifluoropropyl)-1,3-thiazol-2-yl]-4H-pyrido[1,2-a]pyrimidin-4-one] was tested. Which IC50 did it give?
A: 594 nM

Q: With `O=c1c(-c2ccc(OCC(F)(F)F)nc2)c(C(F)(F)F)nc2ccccn12` [Example 20, 3-(6-(2,2,2-Trifluoroethoxy)-3-pyridinyl)-2-(trifluoromethyl)-4H-pyrido[1,2-a]pyrimidin-4-one] as the molecule, how does the IC50 read?
A: 109 nM

Q: For `CN(C)C(=O)c1ccn2c(=O)c(-c3ccc(OCC(F)(F)F)cc3)c(C(F)(F)F)nc2c1` [Example 12-3, N,N-dimethyl-4-oxo-3-(4-(2,2,2-trifluoroethoxy)phenyl)-2-(trifluoromethyl)-4H-pyrido[1,2-a]pyrimidine-8-carboxamide], which IC50 is on record?
A: 2540 nM

Q: With `COc1ccn2c(=O)c(-c3ccc(OCC(F)(F)F)nc3F)c(C(F)(F)F)nc2c1` [Example 7-1, 3-(2-Fluoro-6-(2,2,2-trifluoroethoxy)-3-pyridinyl)-8-methoxy-2-(trifluoromethyl)-4H-pyrido[1,2-a]pyrimidin-4-one] as the molecule, how does the IC50 read?
A: 125 nM

Q: With `COc1ccn2c(=O)c(-c3cnn(CC#N)c3)c(C(F)(F)F)nc2c1` [Example 1-26, (4-(8-methoxy-4-oxo-2-(trifluoromethyl)-4H-pyrido[1,2-a]pyrimidin-3-yl)-1H-pyrazol-1-yl)acetonitrile] as the molecule, how does the IC50 read?
A: 278 nM

Q: With `N#Cc1ccn2c(=O)c(-c3ccc(OCC(F)(F)F)cc3)c(C(F)(F)F)nc2c1` [Example 2-9, 4-oxo-3-(4-(2,2,2-trifluoroethoxy)phenyl)-2-(trifluoromethyl)-4H-pyrido[1,2-a]pyrimidine-8-carbonitrile] as the molecule, how does the IC50 read?
A: 440 nM

Q: How did the IC50 turn out when `COc1ccc2nc(C(F)(F)F)c(-c3cnc(OCC(F)(F)F)nc3)c(=O)n2n1` [Example 39-15, 7-methoxy-3-[2-(2,2,2-trifluoroethoxy)pyrimidin-5-yl]-2-(trifluoromethyl)-4H-pyrimido[1,2-b]pyridazin-4-one] was run?
A: > 67000 nM

Q: Which IC50 does the source give for `COc1ccn2c(=O)c(-c3cnn(CC(F)(F)C(F)(F)F)c3)c(C(F)(F)F)nc2c1Cl` [Example 39-3, 9-chloro-8-methoxy-3-[1-(2,2,3,3,3-pentafluoropropyl)-1H-pyrazol-4-yl]-2-(trifluoromethyl)-4H-pyrido[1,2-a]pyrimidin-4-one] here?
A: 188 nM

Q: How did the IC50 turn out when `CCCc1ccc(-c2c(C(F)(F)F)nc3cc(OC)ccn3c2=O)cc1` [Example 1-79, 8-methoxy-3-(4-propylphenyl)-2-(trifluoromethyl)-4H-pyrido[1,2-a]pyrimidin-4-one] was run?
A: 3.6 nM

Q: With `Cc1cn2c(=O)c(-c3cnc(OCC(F)(F)F)nc3)c(C(F)(F)F)nc2cn1` [Example 39-30, 7-methyl-3-[2-(2,2,2-trifluoroethoxy)pyrimidin-5-yl]-2-(trifluoromethyl)-4H-pyrazino[1,2-a]pyrimidin-4-one] as the molecule, how does the IC50 read?
A: > 67000 nM

Q: How did the IC50 turn out when `[2H]C([2H])([2H])Oc1ccn2c(=O)c(-c3ccc(OCCF)cc3)c(C(F)(F)F)nc2c1` [Example 1-51, 3-(4-(2-fluoroethoxy)phenyl)-8-(methyloxy-d3)-2-(trifluoromethyl)-4H-pyrido[1,2-a]pyrimidin-4-one] was run?
A: 26.6 nM

Q: With `NCc1ccn2c(=O)c(-c3cnn(CC(F)(F)C(F)(F)F)c3)c(C(F)(F)F)nc2c1` [Example 16-2, 8-(aminomethyl)-3-(1-(2,2,3,3,3-pentafluoropropyl)-1H-pyrazol-4-yl)-2-(trifluoromethyl)-4H-pyrido[1,2-a]pyrimidin-4-one] as the molecule, how does the IC50 read?
A: 137 nM

Q: `C[S+]([O-])c1ccn2c(=O)c(-c3ccc(OCC(F)(F)F)cc3)c(C(F)(F)F)nc2c1` (stereo not drawn) [Example 15-1, 8-(Methylsulfinyl)-3-(4-(2,2,2-trifluoroethoxy)phenyl)-2-(trifluoromethyl)-4H-pyrido[1,2-a]pyrimidin-4-one] was tested. Which IC50 did it give?
A: 441 nM

Q: Which IC50 does the source give for `COc1ccn2c(=O)c(-c3cc(-c4ccccc4)no3)c(C(F)(F)F)nc2c1` [Example 1-5, 8-methoxy-3-(3-phenyl-1,2-oxazol-5-yl)-2-(trifluoromethyl)-4H-pyrido[1,2-a]pyrimidin-4-one] here?
A: 46 nM

Q: Which IC50 does the source give for `N#Cc1ccn2c(=O)c(-c3cnn(CC(F)(F)C(F)(F)F)c3)c(C(F)F)nc2c1` [Example 1-85, 2-(difluoromethyl)-4-oxo-3-(1-(2,2,3,3,3-pentafluoropropyl)-1H-pyrazol-4-yl)-4H-pyrido[1,2-a]pyrimidine-8-carbonitrile] here?
A: 148 nM

Q: How did the IC50 turn out when `COc1nc2nc(C(F)(F)F)c(-c3cnn(CC(F)(F)C(F)(F)F)c3)c(=O)n2cc1Cl` [Example 66, 7-Chloro-8-methoxy-3-[1-(2,2,3,3,3-pentafluoropropyl)-1H-pyrazol-4-yl]-2-(trifluoromethyl)-4H-[1,3]diazino[1,2-a]pyrimidin-4-one] was run?
A: 111 nM

Q: For `CC(=O)Nc1ccn2c(=O)c(-c3ccc(OCC(F)(F)F)cc3)c(C(F)(F)F)nc2c1` [Example 1-31, N-(4-oxo-3-(4-(2,2,2-trifluoroethoxy)phenyl)-2-(trifluoromethyl)-4H-pyrido[1,2-a]pyrimidin-8-yl)acetamide], which IC50 is on record?
A: 1720 nM

Q: `COc1ccn2c(=O)c(-c3cccc(OCC(F)(F)F)c3)c(C(F)(F)F)nc2c1` [Example 62, 8-Methoxy-3-[3-(2,2,2-trifluoroethoxy)phenyl]-2-(trifluoromethyl)-4H-pyrido[1,2-a]pyrimidin-4-one] was tested. Which IC50 did it give?
A: > 67000 nM

Q: With `O=c1c(-c2cnn(CC(F)(F)C(F)(F)F)c2)c(C(F)(F)F)nc2cc(CF)ccn12` [Example 13-2, 8-(fluoromethyl)-3-(1-(2,2,3,3,3-pentafluoropropyl)-1H-pyrazol-4-yl)-2-(trifluoromethyl)-4H-pyrido[1,2-a]pyrimidin-4-one] as the molecule, how does the IC50 read?
A: 20.5 nM

Q: Which IC50 does the source give for `COc1ccn2c(=O)c(-c3cnn(-c4ccc(F)cc4)c3)c(C(F)(F)F)nc2c1` [Example 1-17, 3-(1-(4-fluorophenyl)-1H-pyrazol-4-yl)-8-methoxy-2-(trifluoromethyl)-4H-pyrido[1,2-a]pyrimidin-4-one] here?
A: 13.9 nM

Q: For `O=c1c(-c2ccc(OCC(F)(F)F)cc2)c(C(F)(F)F)nc2cc(OC(F)F)ccn12` [Example 1-66, 8-(difluoromethoxy)-3-(4-(2,2,2-trifluoroethoxy)phenyl)-2-(trifluoromethyl)-4H-pyrido[1,2-a]pyrimidin-4-one], which IC50 is on record?
A: 79.1 nM

Q: `COCc1ccc2nc(C(F)(F)F)c(-c3cnn(CC(F)(F)C(F)(F)F)c3)c(=O)n2c1` [Example 39-24, 7-(methoxymethyl)-3-[1-(2,2,3,3,3-pentafluoropropyl)-1H-pyrazol-4-yl]-2-(trifluoromethyl)-4H-pyrido[1,2-a]pyrimidin-4-one] was tested. Which IC50 did it give?
A: 1520 nM

Q: Which IC50 does the source give for `COc1ccn2c(=O)c(-c3cn(CCC(F)(F)F)cn3)c(C(F)(F)F)nc2c1` [Example 25, 8-Methoxy-2-(trifluoromethyl)-3-(1-(3,3,3-trifluoropropyl)-1H-imidazol-4-yl)-4H-pyrido[1,2-a]pyrimidin-4-one] here?
A: 66.2 nM

Q: For `CN(C)Cc1ccn2c(=O)c(-c3cnn(CC(F)(F)C(F)(F)F)c3)c(C(F)(F)F)nc2c1` [Example 26, 8-((Dimethylamino)methyl)-3-(1-(2,2,3,3,3-pentafluoropropyl)-1H-pyrazol-4-yl)-2-(trifluoromethyl)-4H-pyrido[1,2-a]pyrimidin-4-one], which IC50 is on record?
A: 128 nM

Q: For `O=c1c(-c2cnn(CC(F)(F)C(F)(F)F)c2)c(C(F)(F)F)nc2cc(N3CCC3)ccn12` [Example 1-88, 8-(1-azetidinyl)-3-(1-(2,2,3,3,3-pentafluoropropyl)-1H-pyrazol-4-yl)-2-(trifluoromethyl)-4H-pyrido[1,2-a]pyrimidin-4-one], which IC50 is on record?
A: 2350 nM

Q: For `O=c1c(-c2cnc(OCC(F)(F)F)nc2)c(C(F)(F)F)nc2ccc(F)cn12` [Example 39-26, 7-fluoro-3-[2-(2,2,2-trifluoroethoxy)pyrimidin-5-yl]-2-(trifluoromethyl)-4H-pyrido[1,2-a]pyrimidin-4-one], which IC50 is on record?
A: > 67000 nM

Q: How did the IC50 turn out when `COC(=O)c1ccc2nc(C(F)(F)F)c(-c3cnn(CC(F)(F)C(F)(F)F)c3)c(=O)n2c1` [Example 39-16, methyl 4-oxo-3-[1-(2,2,3,3,3-pentafluoropropyl)-1H-pyrazol-4-yl]-2-(trifluoromethyl)-4H-pyrido[1,2-a]pyrimidine-7-carboxylate] was run?
A: 35100 nM

Q: With `O=c1ccn2c(=O)c(-c3cnn(CC(F)(F)C(F)(F)F)c3)c(C(F)(F)F)nc2n1CF` [Example 68, 1-(Fluoromethyl)-7-[1-(2,2,3,3,3-pentafluoropropyl)-1H-pyrazol-4-yl]-8-(trifluoromethyl)-1H,2H,6H-[1,3]diazino[1,2-a]pyrimidine-2,6-dione] as the molecule, how does the IC50 read?
A: 80.7 nM
